Where two headings read alike, the source gives them in different places.

Five compounds from patent US20230302164A1, “PSMA-Targeting Ligands With Optimal Properties for Imaging and Therapy” (Wisconsin Alumni Research Foundation, priority 2021, published 2023) can be followed below.

The nature of series [1]: Partition (logP) and distribution (logD) coefficients, hydrophobicity comparison. To be noted: for LogD: distribution coefficient; for LogD / LogP: 177Lu-labeled compound; for LogP: partition coefficient. It counts as physicochemical.
Series [2] can be described thus: PET/CT imaging in normal ICR mice, blood kinetics by region of interest analysis of the heart. It counts as in vivo. To be noted: i.v., PET days 0-2. As for the experimental part: Compounds PSMA-C12 and PSMA-PhC18 were dissolved in water at a concentration of 1-2 mg/mL. Radiolabeling with Y-86 was carried out in NaOAc buffer (pH 5.0) at 90-95 C for 30 min to 1 h at constant stirring. Ten micrograms of compound per mCi of ^86Y were employed, affording quantitative radiochemical yields. Purification of the compounds was carried out using reverse-phase solid-phase chromatography and purified compounds were redissolved in physiological injection media (e.g., normal saline). Quality control was conducted using reverse-phase HPLC.
In PET/CT imaging studies, 100-250 µCi of ^86Y-PSMA-C12 and ^86Y-PSMA-PhC18 were intravenously administered into normal ICR mice, and mice were scanned on days 0, 1, and 2 after injection. The results are shown in FIG. 1 (for ^86Y-PSMA-C12) and in FIG. 2 (for ^86Y-PSMA-PhC18). Blood circulation kinetics were analyzed through a region of interest analysis of the heart.
To our knowledge, ^86Y-PSMA-PhC18 is the only PSMA inhibitor showing long circulation without albumin binding, and that has predominantly hepatic excretion. These features have clear advantages over other previously known PSMA ligands for prostate cancer theranostics.

In series [3] the test system is PC3-PIP tumor xenografts. Description: Ex vivo biodistribution in PC3-PIP mice after last imaging timepoint. To be noted: 24 h p.i. (617, C12) or 72 h p.i. (PhC18). As for the experimental part: Next, an ex vivo biodistribution analysis was performed following the last imaging timepoint at 24 h p.i. for PC3-PIP mice injected intravenously with ^86Y-PSMA-617 and ^86Y-PSMA-C12 and at 72 h p.i. in mice administered ^86Y-PSMA-PhC18.

The test system of series [4] is LNCap tumor xenografts with lower PSMA expression. Description: PET/CT imaging and region of interest analysis in nude mice bearing LNCap tumor xenografts. It counts as in vivo. On the procedure: Next, PET/CT imaging studies were performed in nude mice bearing LNCap tumor xenografts with lower PSMA expression. The mice were injected intravenously with ^86Y-PSMA-617, ^86Y-PSMA-C12, or ^86Y-PSMA-PhC18 and scanned up to 72 h p.i. […] Finally, a region of interest analysis was then performed on the PET/CT images in nude mice bearing LNCap tumor xenografts injected intravenously with ^86Y-PSMA-617, ^86Y-PSMA-C12, or ^86Y-PSMA-PhC18 and scanned up to 72 h post injection.

Series [5] deals with PC3-PIP tumor xenografts. Description: PET/CT imaging and region of interest analysis in nude mice bearing PC3-PIP tumor xenografts. It counts as in vivo. As for the experimental part: Next, PET/CT imaging studies were performed in nude mice bearing PC3-PIP tumor xenografts ([…] tumors) injected intravenously with ^86Y-PSMA-617, ^86Y-PSMA-C12, or ^86Y-PSMA-PhC18 and scanned up to 72 h post injection.
A region of interest analysis was then performed on the PC3-PIP tumor xenografts injected intravenously with ^86Y-PSMA-617, ^86Y-PSMA-C12, or ^86Y-PSMA-PhC18 and scanned up to 72 h post injection.

Series [6] addresses T1, PSMA (LNCap cells, PSMA positive) (Homo sapiens, UniProt Q04609).
T1 construct: endogenous in cells; host or cells: LNCap cells (human prostate adenocarcinoma)
Put plainly: Competitive binding assay in LNCap cells using 86Y as a radioligand. Conditions: 86Y radioligand, read-out: half inhibition concentration (IC50). As for the experimental part: Competitive binding assays were performed in LNCap cells (PSMA positive, androgen-sensitive human prostate adenocarcinoma cells) using ^86Y as a radioligand.

[7] abbreviates: nude mice, i.v., scanned up to 72 h.
[8] abbreviates: nude mice, region of interest analysis.

T1 sequence (Q04609 whole entry): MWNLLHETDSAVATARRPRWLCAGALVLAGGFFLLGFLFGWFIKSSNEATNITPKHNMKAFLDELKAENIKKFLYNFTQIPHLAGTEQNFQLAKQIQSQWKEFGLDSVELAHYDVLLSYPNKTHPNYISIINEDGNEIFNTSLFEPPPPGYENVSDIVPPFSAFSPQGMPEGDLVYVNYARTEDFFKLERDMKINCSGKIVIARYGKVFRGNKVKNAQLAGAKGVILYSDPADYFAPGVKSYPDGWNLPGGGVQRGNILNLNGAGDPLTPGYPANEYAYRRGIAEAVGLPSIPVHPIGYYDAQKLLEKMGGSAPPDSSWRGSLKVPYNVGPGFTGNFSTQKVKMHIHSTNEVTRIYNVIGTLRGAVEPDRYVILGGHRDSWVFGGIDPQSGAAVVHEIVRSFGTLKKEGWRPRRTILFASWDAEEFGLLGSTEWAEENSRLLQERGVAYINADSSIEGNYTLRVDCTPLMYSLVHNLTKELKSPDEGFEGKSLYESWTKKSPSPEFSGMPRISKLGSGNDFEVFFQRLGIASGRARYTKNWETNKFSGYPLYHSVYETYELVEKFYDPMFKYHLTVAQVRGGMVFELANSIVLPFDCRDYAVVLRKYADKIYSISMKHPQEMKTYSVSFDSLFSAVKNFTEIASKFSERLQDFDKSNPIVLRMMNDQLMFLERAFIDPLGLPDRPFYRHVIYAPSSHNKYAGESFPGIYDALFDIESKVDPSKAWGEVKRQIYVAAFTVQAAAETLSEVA

The LogD is lipophilicity at a set pH, counting ionised and neutral species. One may read the LogP as a log measure of how a compound divides between an organic and an aqueous phase. `O=C([O-])CN1CCN(CC(=O)[O-])CCN(CC(=O)NCC2CCC(C(=O)N[C@@H](Cc3ccc4ccccc4c3)C(=O)NCCCC[C@H](NC(=O)N[C@@H](CCC(=O)O)C(=O)O)C(=O)O)CC2)CCN(CC(=O)[O-])CC1.[177Lu+3]` (stereo partly drawn) [^177Lu-PSMA-617, reference compound]: in series [1], the LogD was -3.2 and the LogP is given as -2.8.

As to `O=C(O)CCC(NC(=O)NC(CCCCNC(=O)CCCCCCCCCCCCCCCCCc1ccc(NC(=O)CN2CCN(CC(=O)O)CCN(CC(=O)O)CCN(CC(=O)O)CC2)cc1)C(=O)O)C(=O)O` (stereo not drawn) [^177Lu-PSMA-PhC18, metal not drawn], the “hydrophobicity comparison” value in series [1] (177Lu-labeled compounds compared with each other) is recorded as “two orders of magnitude more hydrophobic”. In series [1], the LogD is -1.2 and the LogP was -0.8.

For `O=C(O)CCC(NC(=O)NC(CCCCNC(=O)CCCCCCCCCCCCCCCCCc1ccc(NC(=O)CN2CCN(CC(=O)O)CCN(CC(=O)O)CCN(CC(=O)O)CC2)cc1)C(=O)O)C(=O)O` (stereo not drawn) [^86Y-PSMA-PhC18, metal not drawn], the “blood circulation” value is “prolonged circulation” in series [2], “prolonged blood circulation” in series [4] (setting [7]) and “prolonged blood circulation” in the series with PC3-PIP tumor xenografts [5] (setting [7]). For the same compound, the “excretion route” value in series [2] is “hepatobiliary excretion”. Also, the “tissue with highest uptake in ex vivo biodistribution” value in the series on PC3-PIP tumor xenografts [3] is recorded as “the tumor shows the highest uptake of all analysed tissues”. For the same compound, the “clearance from normal organs” value in series [4] (nude mice) is “Steady clearance from normal organs”. In addition, the “tumor uptake and retention versus 86Y-PSMA-617” value in series [4] (nude mice, PET/CT) was “significantly improved”. Further, the “renal clearance” value (in series [4] (setting [7]); with PC3-PIP tumor xenografts [5] (setting [7])) was “minimal renal clearance” in each case. The results for the blood circulation half-life (in series [4] (setting [8]); with PC3-PIP tumor xenografts [5] (setting [8])) were 15.1 h and 11.7 h, respectively. Further, the “time at which tumor uptake plateaued” value in series [4] (p.i.) is given as 24 h. For the same compound, in series [4] (region of interest analysis), the “tumor uptake at 72 h p.i. relative to 86Y-PSMA-617 and 86Y-PSMA-C12 at 24 h p.i.” value is reported as “five times higher”. Besides, the “tumor uptake and retention versus 86Y-PSMA-617 and 86Y-PSMA-C12” value with PC3-PIP tumor xenografts [5] (nude mice, i.v., PET/CT) is listed as “significantly improved”. This compound gave a blood circulation half-life (unit not given) with PC3-PIP tumor xenografts [5] (nude mice, region of interest analysis, FIG. 5 legend) of 11.7 h. The “time at which tumor uptake plateaus” value in the series with PC3-PIP tumor xenografts [5] (post injection) is on record as 24 h.

As to `O=C(O)CCC(NC(=O)NC(CCCCNC(=O)CCCCCCCCCCCNC(=O)CN1CCN(CC(=O)O)CCN(CC(=O)O)CCN(CC(=O)O)CC1)C(=O)O)C(=O)O` (stereo not drawn) [^177Lu-PSMA-C12, metal not drawn], the LogD in series [1] (read-out: LogD) is -2.9. Also, the LogP in series [1] (read-out: LogP) was -2.6.

On to `O=C(O)CCC(NC(=O)NC(CCCCNC(=O)CCCCCCCCCCCNC(=O)CN1CCN(CC(=O)O)CCN(CC(=O)O)CCN(CC(=O)O)CC1)C(=O)O)C(=O)O` (stereo not drawn) [^86Y-PSMA-C12, metal not drawn], for which, in series [2], the “blood circulation” value is on record as “short circulation half-life” and the “excretion route” value is recorded as “renal excretion”. The “tissue with highest uptake in ex vivo biodistribution” value in the series on PC3-PIP tumor xenografts [3] is on record as “the tumor shows the highest uptake of all analysed tissues”. Besides, the IC50 in series [6] was found to be 58.2 nM.
